Assay results: PubChem BioAssay (NCI)
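Cultured in 96-well plates, cells were exposed to test compound for 48 hours across five concentrations. GI50: concentration for 50% inhibition of growth. At the TGI there is no net growth.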

What was measured:
Experiment in all cases: NCI-60 cell line screen, 48 h
[1] = test system: CCRF-CEM leukemia
[2] = test system: HL-60(TB) leukemia
[3] = test system: HOP-62 NSCLC
[4] = test system: HS 578T breast
[5] = test system: HT29 colon
[6] = test system: MOLT-4 leukemia
[7] = test system: NCI-H460 lung
[8] = test system: RPMI-8226 leukemia
[9] = test system: RXF 393 renal
[10] = test system: SF-539 CNS

Row | SMILES | GI50 [1] | TGI [1] | GI50 [2] | TGI [2] | GI50 [3] | TGI [3] | GI50 [4] | TGI [4] | GI50 [5] | TGI [5] | GI50 [6] | TGI [6] | GI50 [7] | TGI [7] | GI50 [8] | TGI [8] | GI50 [9] | TGI [9] | GI50 [10] | TGI [10]
1 | CCOC(=O)c1cc(NS(=O)(=O)c2ccc(C)cc2)cc(C(=O)OCC)c1 | 37.2 µM | > 100 µM | 26.5 µM | > 100 µM | 79.6 µM | > 100 µM | 26.4 µM | 69.9 µM | 82.7 µM | > 100 µM | 26.6 µM | > 100 µM | 37.5 µM | > 100 µM | 27 µM | > 100 µM | > 100 µM | > 100 µM | 49.4 µM | > 100 µM
2 | Cc1[nH]nc2ncc(C(=O)N3CCC[C@H]3c3ccc(Cl)cc3)cc12 | 36.1 µM | > 100 µM | 32.6 µM | 90.7 µM | > 100 µM | > 100 µM | > 100 µM | > 100 µM | > 100 µM | > 100 µM | 72.1 µM | > 100 µM | > 100 µM | > 100 µM | 63 µM | > 100 µM | 39.5 µM | > 100 µM | 44.4 µM | > 100 µM
3 | COc1cc(/C=C/C(=O)c2c(-c3ccc(F)cc3)nc3sc(C)nn23)cc(OC)c1OC | 2 µM | 5.95 µM | 2.44 µM | 6.17 µM | 2.28 µM | 7.06 µM | 5.39 µM | > 100 µM | 2.55 µM | 5.51 µM | 2.3 µM | 6.72 µM | 1.94 µM | 4.08 µM | 1.92 µM | 5.13 µM | 2.11 µM | 6.66 µM | 2.09 µM | 4.54 µM
4 | CC/C=C\C[C@H](O)C/C=C1/C(=O)C=C[C@@H]1C/C=C\CCCCO | 2.43 µM | 16.5 µM | 2.29 µM | 6.88 µM | 2.12 µM | 5 µM | 9.24 µM | > 100 µM | 2.4 µM | 5.62 µM | 2.65 µM | 11.1 µM | 2.93 µM | 9.24 µM | 2.52 µM | 10.4 µM | 2.25 µM | 4.18 µM | 2.03 µM | 4.55 µM
5 | Cc1ccccc1C(C(=O)NC1CCCCC1)N(C(=O)CNc1ncccc1F)c1cccc(F)c1 (stereo not given) | > 100 µM | > 100 µM | > 100 µM | > 100 µM | 14.8 µM | > 64.3 µM | 27.2 µM | > 100 µM | > 100 µM | > 100 µM | > 100 µM | > 100 µM | > 100 µM | > 100 µM | > 100 µM | > 100 µM | 4.72 µM | 20.1 µM | 22.7 µM | 81.7 µM
6 | Oc1ccccc1/C=N\NC(=S)N/N=C/c1ccccc1O | 0.648 µM | > 100 µM | 2.04 µM | 14.6 µM | 4.22 µM | > 100 µM | 10.7 µM | 69.6 µM | 6.63 µM | 48.8 µM | 1.43 µM | 22.4 µM | 0.62 µM | 12.1 µM | 2.77 µM | 34.2 µM | 5.72 µM | > 100 µM | 3.26 µM | 34.3 µM
